Assays:
[1] = system: CYP3A4, CYP1A2, CYP2B6, and CYP2C9; experiment: Induction of gene expression of CYP enzymes by inducing agents; format: cell-based, human; details: confirmed by the inventors
CYP3A4 = target: T1, CYP3A4 (Homo sapiens, UniProt P08684); experiment: CYP3A4 activity in cell group by luminescence method (P450-Glo, Luciferin-IPA); format: cell-based; details: HepaRG pre-induced with 2% DMSO, 2 ng/ml, 48 hr, vs control (FIG. 18)
T1 construct: endogenous in cells; host or cells: HepaRG cells (human liver tumor-derived; BIOPREDIC International)
T1 sequence (P08684 whole entry): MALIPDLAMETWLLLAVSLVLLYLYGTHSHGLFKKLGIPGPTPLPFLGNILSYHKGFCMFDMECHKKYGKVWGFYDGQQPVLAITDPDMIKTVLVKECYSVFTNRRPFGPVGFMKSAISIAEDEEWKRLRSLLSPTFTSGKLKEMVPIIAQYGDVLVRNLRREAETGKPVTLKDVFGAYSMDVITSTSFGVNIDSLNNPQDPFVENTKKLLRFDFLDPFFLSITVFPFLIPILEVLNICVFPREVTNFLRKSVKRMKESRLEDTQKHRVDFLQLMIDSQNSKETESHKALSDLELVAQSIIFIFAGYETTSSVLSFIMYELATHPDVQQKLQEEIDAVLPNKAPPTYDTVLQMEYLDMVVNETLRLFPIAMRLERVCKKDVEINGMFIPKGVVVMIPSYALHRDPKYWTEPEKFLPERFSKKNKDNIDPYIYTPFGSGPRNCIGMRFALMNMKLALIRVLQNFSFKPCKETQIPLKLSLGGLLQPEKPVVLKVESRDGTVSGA
Procedure: In order to confirm the enzyme activity of CYP3A4, which is particularly expressed in liver cells among the CYP enzymes in the cell group subjected to Raman observation, a test using a luminescence method (hereinafter a luminescence test) was performed in parallel with the Raman observation. The cell is group used in the luminescence test was a cell group separated from the cultured cells used in the below-mentioned Raman observation in (5). That is, the cell group cultured under the same conditions and at the same time as the cultured cells used in Raman observation was used. CYP luminescence test was performed using a commercially available luminescence assay kit (P450-Glo-CYP3A4-Assay-and-Screening-System) according to the provided protocol.
When the Luciferin-IPA substrate is converted to luciferin by CYP3A4, it becomes a substrate for luciferase, producing luminescence proportional to the activity of CYP3A4. […] Luciferase (50 μl) was added dropwise to the dispensed substrate-containing medium, and luminescence was caused using the luciferin-luciferase reaction. Luminescence was detected using a micro-plate reader (Synergy HTX, BioTek). The CYP3A4 activity detected by the present luminescence method is shown in FIG. 7, FIG. 14, FIG. 16, FIG. 18, FIG. 20, and FIG. 22.

CYP enzyme group = experiment: Raman observation of HepaRG hepatocytes, signal of oxidized CYP enzyme group (1370, 1636 cm^-1); format: cell-based, human
Text: (§1) A Raman image of the cell group cultured using the above-mentioned method (1) or (2) was constructed by quantitatively measuring the Raman signal using Raman spectroscopy. Here, the “observation” in the present specification includes both detecting a Raman scattering signal of a cell group and acquiring and observing a Raman image of a cell group. […] Details are explained in each Example.
The culture medium of the cultured cell group was removed, and the cell group was washed twice with PBS. An observation solution (Live Cell Imaging Solution (A14291DJ, Thermo Fisher Scientific)) was added to the washed cell group. The thus-treated cell group was subjected to Raman observation using the Raman microscope (Non Patent Literature 3) described using FIG. 1 (FIG. 6, FIG. 9 to 11, FIG. 13 to FIG. 21, FIG. 23 to FIG. 26).
A 40× water immersion objective lens (CFI Apochromat Lambda S 40XC WI) equipped in a Raman microscope was used to excite the Raman scattered light of the cell group and to detect the Raman scattering signal. The excitation light of the Raman scattered light of the cell group was irradiated by condensing a laser beam with a wavelength of 532 nm into a straight line with a predetermined length (hereinafter referred to as a line) using the water immersion objective lens.
(§2) The flow of detection of Raman scattered light of a cell group that was generated by excitation with excitation light is explained. […] The Raman scattering signal imaged on the slit is then separated by diffraction grating inside the spectroscope and detected by a cooling-type CCD image sensor (PIXIS 400B, Princeton Instruments) used as a photodetector. Raman scattering signals scattered from everywhere on the condensed line can be measured simultaneously and independently by different pixels on the CCD. […] Respective Raman signals were simultaneously detected in an about 133.3 μm region on the direction of the condensed line.

[2] = system: reduced heme b, mainly reduced cytochrome b5; experiment: Raman observation of HepaRG hepatocytes, reduced heme b signal (675 cm^-1); format: cell-based, human; details: HepaRG induced with 4 μM Rifampicin, inhibitor 10 μM for 5 min (FIG. 24)
Text: as §1
The culture medium of the cultured cell group was removed, and the cell group was washed twice with PBS. An observation solution (Live Cell Imaging Solution (A14291DJ, Thermo Fisher Scientific)) was added to the washed cell group. […]
as §2

Molecule: O=C1NC(=O)C(c2ccccc2)(c2ccccc2)N1 [Phenytoin]
- gene expression of at least one of CYP3A4, CYP1A2, CYP2B6, CYP2C9 [1]: induce gene expression

Molecule: Interleukin-6 [IL-6]
- activity of CYP3A4 (luminescence test) after suppression (CYP3A4): decreases
- CYP activity detected using Raman signals (1636 cm^-1) after suppression (CYP enzyme group; HepaRG pre-induced with 2% DMSO, 2 ng/ml, 48 hr, vs control (FIGS. 18, 19)): downregulation

Molecule: NC(=O)N1c2ccccc2C=Cc2ccccc21 [Carbamazepine]
- gene expression of at least one of CYP3A4, CYP1A2, CYP2B6, CYP2C9 [1]: induce gene expression

Molecule: CC[C@]1(C)C[C@@H](OC(=O)CSc2nnc(N)[nH]2)[C@]2(C)[C@H](C)CC[C@]3(CCC(=O)[C@H]32)[C@@H](C)[C@@H]1O [Azamulin]
- Raman signal with a wavenumber of 675 cm^-1 after inhibition [2]: did not increase
- Raman signal at a wavenumber of 1636 cm^-1 after inhibition (CYP enzyme group; HepaRG induced with 4 μM Rifampicin, inhibitor 10 μM for 5 min (FIG. 23)): reduces
- median value of per-cell Raman signal at 1636 cm^-1 after inhibition (CYP enzyme group; HepaRG induced with 4 μM Rifampicin, inhibitor 10 μM for 5 min, vs not administered, statistically significant (FIG. 23)): decreased

Reference: patent US20240229101A1, “METHOD FOR DETECTING INTRACELLULAR ACTIVITY OF CYP ENZYMES” (NATIONAL INSTITUTE OF ADVANCED INDUSTRIAL SCIENCE AND …, priority 2021, published 2024)
